From publication PMC9841521, “Subnanomolar Affinity and Selective Antagonism at α7 Nicotinic Receptor by Combined Modifications of 2-Triethylammonium Ethyl Ether of 4-Stilbenol (MG624)” (Journal of Medicinal Chemistry, 2022)
“Also recorded” adds a separate entry of the source. Where two headings read alike, the source gives them in different places.

How the values were obtained:
[1] = target: T1, human α3β4-nAChR subtype (Homo sapiens, UniProt P30926+P32297); experiment: Competition binding with [3H]epibatidine, membranes of SH-EP1 cells stably transfected with α3 and β4; conditions: for Ki: human α3β4 expressed in SH-EP1 cells, confidence interval in parentheses, read-out: α3β4-nAChR [3H]-Epi Ki
T1 construct: expressed in transfected cells

[2] = target: T2, human α4β2-nAChR subtype (Homo sapiens, UniProt P17787+P43681); experiment: Competition binding with [3H]epibatidine, membranes of HEK 293 cells stably transfected with α4 and β2; conditions: human α4β2 expressed in HEK 293 cells; confidence interval in parentheses; read-out: α4β2-nAChR [3H]-Epi Ki
T2 construct: expressed in transfected cells; gift of Dr. Jon Lindstrom

[3] = target: T3, human α7-nAChR (Homo sapiens, UniProt P36544); experiment: Two-electrode voltage clamp, antagonism of currents activated by 1 mM ACh, test compound coapplied, X. laevis oocytes; assay type: cell-based; conditions: for inhibition of ACh-induced function at the α7-nAChR: maximal inhibition
[4] = target: T4, human α9α10-nAChR (Homo sapiens, UniProt Q9GZZ6+Q9UGM1); experiment: Two-electrode voltage clamp, antagonism of currents activated by 1 mM ACh, test compound coapplied, X. laevis oocytes (α9:α10 cRNA 9:1); assay type: cell-based; conditions: coapplied with 1 mM ACh; for inhibition of ACh-induced α9α10-nAChR function (in words) / IC50: up to 100 μM; for IC50: 95% confidence interval in parentheses; for inhibition of ACh-induced function at the α9α10-nAChR: maximal inhibition
T4 construct: expressed in transfected cells; host or cells: Xenopus laevis oocytes (cRNA injection, α9:α10 9:1)

[5] = target: T4, human α9α10-nAChR; experiment: Two-electrode voltage clamp, compound applied alone at 100 μM: intrinsic activity, rebound current, residual ACh response; assay type: cell-based; conditions: for partial agonism of α9α10-nAChRs, efficacy (AUC) / partial agonism of α9α10-nAChRs, efficacy (peak current): 100 μM pulse, alone, vs 1 mM ACh, range over the named compounds; for recovery of rebound current at α9α10-nAChR (in words): 1 min after test compound; for recovery of rebound current at α9α10-nAChR (in words) / residual ACh-induced current at α9α10-nAChR (in words): Figure 4; for residual ACh-induced current at α9α10-nAChR (in words): final ACh control 1 min after test compound
[6] = target: T3, human α7-nAChR; experiment: as above; assay type: cell-based; set-up: expressed in transfected cells; host or cells: SH-SY5Y neuroblastoma cells (transient); conditions: 100 μM pulse, vs 1 mM ACh, range over the named compounds
[7] = coapplied with 1 mM ACh, up to 100 μM
[8] = coapplied with 1 mM ACh, up to 100 μM, 95% confidence interval in parentheses, NA = not inhibited even at 100 μM, read-out: α7 IC50 (AUC)
[9] = coapplied with 1 mM ACh, up to 100 μM, 95% confidence interval in parentheses, NA = not inhibited even at 100 μM, read-out: α7 IC50 (peak current)

SMILES	Ki [1]	Ki [2]	IC50 [4]	other results
CC[N+](CC)(CC)CCOc1ccc(/C=C/c2cccc(C(F)(F)F)c2)cc1 [Compound 15, (E)-N,N,N-Triethyl-2-(4-(3-(trifluoromethyl)styryl)phenoxy)ethan-1-aminium Iodide]	1.41 µM	21.8 µM		
CC[N+](CC)(CC)CCOc1ccccc1 [Compound 3, N,N,N-Triethyl-2-phenoxyethan-1-aminium Iodide]	10 µM	19 µM		
CC[N+](CC)(CC)CCOc1ccc(-c2ccccc2)cc1 [Compound 5, 2-([1,1′-Biphenyl]-4-yloxy)-N,N,N-triethylethan-1-aminium Iodide]	0.44 µM	11.8 µM		
CC[N+](CC)(CC)CCOc1ccc(-c2ccc3occc3c2)cc1 [Compound 32, 2-(4-(Benzofuran-5-yl)phenoxy)-N,N,N-triethylethan-1-aminium Iodide]	0.343 µM			
CC[N+](CC)(CC)CCOc1ccc(/C=C/c2cccc3ccccc23)cc1 [Compound 10, (E)-N,N,N-Triethyl-2-(4-(2-(naphthalen-1-yl)vinyl)phenoxy)ethan-1-aminium Iodide]	0.501 µM			
CC[N+](CC)(CC)CCOc1ccc(-c2ccc3ccccc3c2)cc1 [Compound 8, N,N,N-Triethyl-2-(4-(naphthalen-2-yl)phenoxy)ethan-1-aminium Iodide]	0.458 µM	1.8 µM		
CC[N+](CC)(CC)CCOc1ccc(/C=C/c2ccc3ccccc3c2)cc1 [Compound 11, (E)-N,N,N-Triethyl-2-(4-(2-(naphthalen-2-yl)vinyl)phenoxy)ethan-1-aminium Iodide]	0.425 µM			
CC[N+](CC)(CC)CCOc1ccc(C#Cc2ccccc2)cc1 [Compound 7, N,N,N-Triethyl-2-(4-(phenylethynyl)phenoxy)ethan-1-aminium Iodide]	0.912 µM	19.4 µM		
CC[N+](CC)(CC)CCOc1ccc(/N=N/c2ccccc2)cc1.[I-] [Compound 27, (E)-N,N,N-Triethyl-2-(4-(phenyldiazenyl)phenoxy)ethan-1-aminium Iodide]			15.8 µM	inhibition of ACh-induced α7-nAChR function (in words) [3, 7]: complete or nearly complete inhibition; IC50 [3, 8]: 5.54 µM; IC50 [3, 9]: 11.2 µM; inhibition of ACh-induced α9α10-nAChR function (in words) [4]: complete or nearly complete inhibition
CC[N+](CC)(CC)CCOc1ccc(CCc2ccccc2)cc1.[I-] [Compound 6, N,N,N-Triethyl-2-(4-phenethylphenoxy)ethan-1-aminium Iodide]	1.25 µM		9.12 µM	inhibition of ACh-induced α7-nAChR function (in words) [3, 7]: no inhibition; also recorded: no effect; also recorded: devoid of α7-nAChR antagonism; alpha7 nAChR IC50 (AUC) ([3]; supplementary CSV): not active; alpha7 nAChR IC50 (peak current) ([3]; supplementary CSV): not active; partial agonism of α9α10-nAChRs, efficacy (AUC) [5]: 0.2–3 % of ACh control; partial agonism of α9α10-nAChRs, efficacy (peak current) [5]: 5–55 % of ACh control; block of subsequent ACh-induced function at α9α10-nAChRs (in words) ([5]; final 1 mM ACh 1 min after 100 μM compound, Figure 3B): significantly block; inhibition of ACh-induced α9α10-nAChR function (in words) [4]: essentially full inhibition
CC[N+](CC)(CC)CCOc1ccc(NC(=O)c2ccccc2)cc1 [Compound 25, 2-(4-Benzamidophenoxy)-N,N,N-triethylethan-1-aminium Iodide]	1.07 µM	4.5 µM	115 µM	IC50 [3, 8]: 26.9 µM; IC50 [3, 9]: 25.7 µM
CC[N+](CC)(CC)CCOc1ccc(-c2nc3ccccc3o2)cc1.[I-] [Compound 28, 2-(4-(Benzo[d]oxazol-2-yl)phenoxy)-N,N,N-triethylethan-1-aminium Iodide]	0.653 µM		72.4 µM	IC50 [3, 8]: 2.25 µM; IC50 [3, 9]: 1.78 µM; partial agonism of α9α10-nAChRs, efficacy (AUC) [5]: 0.2–3 % of ACh control; partial agonism of α9α10-nAChRs, efficacy (peak current) [5]: 5–55 % of ACh control; recovery of rebound current at α9α10-nAChR (in words) [5]: almost complete recovery; residual ACh-induced current at α9α10-nAChR (in words) [5]: highest residual ACh-induced currents; partial agonism at α7-nAChR, efficacy compared to ACh control (peak current) [6]: 15–50%
CC[N+](CC)(CC)CCOc1ccc(/C=C/c2cc(O)cc(O)c2)cc1 [Compound 22, (E)-2-(4-(3,5-Dihydroxystyryl)phenoxy)-N,N,N-triethylethan-1-aminium Iodide]	0.793 µM	7.24 µM		
CC[N+](CC)(CC)CCOc1ccc(C(=O)Nc2ccccc2)cc1 [Compound 26, N,N,N-Triethyl-2-(4-(phenylcarbamoyl)phenoxy)ethan-1-aminium Iodide]	0.113 µM	23 µM	75.9 µM	IC50 [3, 8]: > 100 µM; IC50 [3, 9]: > 100 µM; IC50 ([3]; supplementary CSV, read-out: alpha7 nAChR IC50 (AUC)): > 100 µM; IC50 ([3]; supplementary CSV, read-out: alpha7 nAChR IC50 (peak current)): > 100 µM
CC[N+](CC)(CC)CCOc1ccc(-c2ccc3cc[nH]c3c2)cc1.[I-] [Compound 30, 2-(4-(1H-Indol-6-yl)phenoxy)-N,N,N-triethylethan-1-aminium Iodide]	0.174 µM		6.46 µM	inhibition of ACh-induced α7-nAChR function (in words) [3, 7]: complete or nearly complete inhibition; IC50 [3, 8]: 1.95 µM; IC50 [3, 9]: 1.91 µM; inhibition of ACh-induced function at the α7-nAChR ([3]; coapplied with 1 mM ACh): 100%; inhibition of ACh-induced α9α10-nAChR function (in words) [4]: complete or nearly complete inhibition; inhibition of ACh-induced function at the α9α10-nAChR [4]: 100%
CC[N+](CC)(CC)CCOc1ccc(/C=C/c2ccc(C(F)(F)F)cc2)cc1 [Compound 16, (E)-N,N,N-Triethyl-2-(4-(4-(trifluoromethyl)styryl)phenoxy)ethan-1-aminium Iodide]	0.874 µM	10.4 µM		
CC[N+](CC)(CC)CCOc1ccc(-c2ccc3[nH]ccc3c2)cc1.[I-] [Compound 31, 2-(4-(1H-Indol-5-yl)phenoxy)-N,N,N-triethylethan-1-aminium Iodide]	0.177 µM		8.13 µM	inhibition of ACh-induced α7-nAChR function (in words) [3, 7]: complete or nearly complete inhibition; IC50 [3, 8]: 1.86 µM; IC50 [3, 9]: 2.01 µM; inhibition of ACh-induced function at the α7-nAChR ([3]; coapplied with 1 mM ACh): 100%; inhibition of ACh-induced α9α10-nAChR function (in words) [4]: complete or nearly complete inhibition; inhibition of ACh-induced function at the α9α10-nAChR [4]: 100%
CC[N+](CC)(CC)CCOc1ccc(-c2cccc3ccccc23)cc1.[I-] [Compound 9, N,N,N-Triethyl-2-(4-(naphthalen-1-yl)phenoxy)ethan-1-aminium Iodide]				higher affinity for the α3β4- than for the α7-nAChR ([1]; binding affinities): ≈ 30 fold
C[N+]1(C)CC[C@@H](Oc2ccc(-c3ccc4[nH]ccc4c3)cc2)C1.[I-] [Compound 33, (R)-3-(4-(1H-Indol-5-yl)phenoxy)-1,1-dimethylpyrrolidin-1-ium Iodide]	0.365 µM	5.1 µM	15.9 µM	partial agonism of α9α10-nAChRs, efficacy (AUC) [5]: 0.2–3 % of ACh control; partial agonism of α9α10-nAChRs, efficacy (peak current) [5]: 5–55 % of ACh control; recovery of rebound current at α9α10-nAChR (in words) [5]: almost complete recovery; residual ACh-induced current at α9α10-nAChR (in words) [5]: highest residual ACh-induced currents; inhibition of ACh-induced α9α10-nAChR function (in words) [4]: complete or nearly complete inhibition; inhibition of ACh-induced function at the α9α10-nAChR [4]: 100%
CC[N+](CC)(CC)CCOc1ccc(OCc2ccccc2)cc1 [Compound 23, 2-(4-(Benzyloxy)phenoxy)-N,N,N-triethylethan-1-aminium Iodide]	4.7 µM			
CC[N+](CC)(CC)CCOc1ccc(/C=C/c2cc(OC)cc(OC)c2)cc1 [Compound 21]	0.676 µM	1.2 µM		
CC[N+](CC)(CC)CCOc1ccc(-c2nc3ccccc3[nH]2)cc1 [Compound 29, 2-(4-(1H-Benzo[d]imidazol-2-yl)phenoxy)-N,N,N-triethylethan-1-aminium Iodide]	0.345 µM		202 µM	IC50 [3, 8]: 197 µM; IC50 [3, 9]: 182 µM
CC[N+](CC)(CC)CCOc1ccc(/C=C/c2ccc(O)cc2)cc1 [Compound 20, (E)-N,N,N-Triethyl-2-(4-(4-hydroxystyryl)phenoxy)ethan-1-aminium Iodide]	0.873 µM	9.82 µM		
C=Cc1ccc(OCC[N+](CC)(CC)CC)cc1 [Compound 4, N,N,N-Triethyl-2-(4-vinylphenoxy)ethan-1-aminium Iodide]	1.07 µM	24 µM		
CC[N+](CC)(CC)CCOc1ccc(/C=C/c2cccc(O)c2)cc1 [Compound 19, (E)-N,N,N-Triethyl-2-(4-(3-hydroxystyryl)phenoxy)ethan-1-aminium Iodide]	0.998 µM	10.1 µM		
CC[N+](CC)(CC)CCOc1ccc(/C=C/c2ccc(OC)cc2)cc1 [Compound 18, (E)-N,N,N-Triethyl-2-(4-(4-methoxystyryl)phenoxy)ethan-1-aminium Iodide]	0.187 µM			
